Assay [1] has as its system CCRF-CEM. The assay can be described thus: Anticancer activity against human CCRF-CEM cells assessed as cell viability at 50 uM after 24 hrs by MTT assay. The conditions noted are these: read-out: Activity. It is filed as functional. (Tetrazolium assays rely on reduction of a dye to a coloured formazan, in cell work by metabolically active cells.)
Assay [2] deals with CCRF-CEM. The assay can be described thus: Anticancer activity against human CCRF-CEM cells assessed as cell viability at 12.5 uM after 48 hrs by MTT assay. It is filed as functional. The conditions noted are these: read-out: Activity.
Assay [3] concerns MCF7. The assay can be described thus: Anticancer activity against human MCF7 cells assessed as cell viability at 12.5 uM after 48 hrs by MTT assay. It is filed as functional. The conditions noted are these: MCF7, 48 h, read-out: Activity.
The test system of assay [4] is MCF7. The assay can be described thus: Anticancer activity against human MCF7 cells assessed as cell viability at 25 uM after 48 hrs by MTT assay. The note with it: MCF7, 48 h, read-out: Activity. It is filed as functional.
The subject of assay [5] is MCF7. Briefly: Anticancer activity against human MCF7 cells assessed as cell viability at 12.5 uM after 24 hrs by MTT assay. It is filed as functional. The conditions noted are these: MCF7, 24 h, read-out: Activity.
Assay [6] concerns MCF7. The assay can be described thus: Anticancer activity against human MCF7 cells assessed as cell viability at 100 uM after 48 hrs by MTT assay. The note with it: MCF7, 48 h, read-out: Activity. It is filed as functional.
The subject of assay [7] is MCF7. The assay can be described thus: Anticancer activity against human MCF7 cells assessed as cell viability at 50 uM after 24 hrs by MTT assay. It is filed as functional. The conditions noted are these: MCF7, 24 h, read-out: Activity.
The test system of assay [8] is CCRF-CEM. The assay can be described thus: Anticancer activity against human CCRF-CEM cells assessed as cell viability at 100 uM after 24 hrs by MTT assay. It is filed as functional. The conditions noted are these: read-out: Activity.
Assay [9] relates to CCRF-CEM. Briefly: Anticancer activity against human CCRF-CEM cells assessed as cell viability at 50 uM after 48 hrs by MTT assay. It is filed as functional. The conditions noted are these: read-out: Activity.
The test system of assay [10] is MCF7. The assay can be described thus: Anticancer activity against human MCF7 cells assessed as cell viability at 100 uM after 24 hrs by MTT assay. The note with it: MCF7, 24 h, read-out: Activity. It is filed as functional.
The target of assay [11] is Casein kinase II subunit alpha (Homo sapiens) (UniProt P68400). Briefly: Inhibition of human CK2alpha using RRRDDDSDDD peptide substrate at 20 uM by P81 filter-binding assay. Set-up: scale not given: the % may be the effect or the level left.
The subject of assay [12] is CCRF-CEM. The assay can be described thus: Anticancer activity against human CCRF-CEM cells assessed as cell viability at 100 uM after 48 hrs by MTT assay. It is filed as functional. The conditions noted are these: read-out: Activity.
The target of assay [13] is Casein kinase II subunit alpha (Homo sapiens) (UniProt P68400). The assay can be described thus: Inhibition of human CK2alpha using RRRDDDSDDD peptide substrate at 200 uM by P81 filter-binding assay. Set-up: scale not given: the % may be the effect or the level left.
Assay [14] deals with MCF7. Briefly: Anticancer activity against human MCF7 cells assessed as cell viability at 50 uM after 48 hrs by MTT assay. It is filed as functional. The conditions noted are these: MCF7, 48 h, read-out: Activity.
Assay [15] deals with CCRF-CEM. Briefly: Anticancer activity against human CCRF-CEM cells assessed as cell viability at 25 uM after 24 hrs by MTT assay. It is filed as functional. The conditions noted are these: read-out: Activity.
Assay [16] concerns MCF7. The assay can be described thus: Anticancer activity against human MCF7 cells assessed as cell viability at 25 uM after 24 hrs by MTT assay. The conditions noted are these: MCF7, 24 h, read-out: Activity. It is filed as functional.
For assay [17], the system named is CCRF-CEM. Briefly: Anticancer activity against human CCRF-CEM cells assessed as cell viability at 25 uM after 48 hrs by MTT assay. It is filed as functional. The conditions noted are these: read-out: Activity.
For assay [18], the system named is CCRF-CEM. Briefly: Anticancer activity against human CCRF-CEM cells assessed as cell viability at 12.5 uM after 24 hrs by MTT assay. It is filed as functional. The note with it: read-out: Activity.

Sequence of Casein kinase II subunit alpha (Homo sapiens) (P68400 whole entry, looked up): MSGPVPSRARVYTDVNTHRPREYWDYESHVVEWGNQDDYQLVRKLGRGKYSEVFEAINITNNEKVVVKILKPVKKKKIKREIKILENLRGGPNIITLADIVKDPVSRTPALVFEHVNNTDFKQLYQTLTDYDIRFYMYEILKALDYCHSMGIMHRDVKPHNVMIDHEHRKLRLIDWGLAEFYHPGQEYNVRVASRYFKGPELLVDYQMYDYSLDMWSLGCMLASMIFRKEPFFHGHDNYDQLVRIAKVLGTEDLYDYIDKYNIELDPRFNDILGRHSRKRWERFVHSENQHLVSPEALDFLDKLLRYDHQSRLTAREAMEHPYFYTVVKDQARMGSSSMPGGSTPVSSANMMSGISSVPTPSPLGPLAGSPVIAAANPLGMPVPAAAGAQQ

In the case of `COc1cccc(C(O)CCn2nc3c(Br)c(Br)c(Br)c(Br)c3n2)c1` (centres undefined), the viability at 50 µM in the assay on CCRF-CEM [1] is 58%; in the assay on MCF7 [7], 22%; with CCRF-CEM [9] it was 2%; with MCF7 [14], 20%. Besides, the viability at 12.5 µM in the assay on CCRF-CEM [2] amounted to 96%; in the assay with MCF7 [3], 97%; in the assay on MCF7 [5], 121%; in the assay with CCRF-CEM [18], 110%. Besides, the viability at 25 µM with MCF7 [4] amounted to 96%; with CCRF-CEM [15] it was 106%; with MCF7 [16] it was 71%; in the assay on CCRF-CEM [17] it was 50%. For the same compound, the viability at 100 µM came out at 6% in the assay on MCF7 [6], 48% in the assay on CCRF-CEM [8], 16% in the assay on MCF7 [10] and 2% with CCRF-CEM [12]. For the same compound, the Activity in assay [11] is 95.1%; in assay [13], 87.5%.

With `OC(CCn1nc2c(Br)c(Br)c(Br)c(Br)c2n1)c1ccc(Br)cc1` (centres undefined), the viability at 50 µM was determined as 58% in the assay with CCRF-CEM [1], 10% in the assay on MCF7 [7], 0% with CCRF-CEM [9] and 15% in the assay with MCF7 [14]. For the same compound, the viability at 12.5 µM with CCRF-CEM [2] came out at 89%; in the assay with MCF7 [3], 107%; with MCF7 [5], 82%; with CCRF-CEM [18], 101%. In addition, the viability at 25 µM in the assay with MCF7 [4] was 105%; with CCRF-CEM [15], 109%; with MCF7 [16], 59%; with CCRF-CEM [17], 69%. Further, the viability at 100 µM in the assay with MCF7 [6], in the assay on CCRF-CEM [8], with MCF7 [10] and in the assay with CCRF-CEM [12] was 0% throughout. Moreover, the Activity was found to be 97.4% in assay [11] and 33.5% in assay [13].

`OC(CCn1nc2c(Br)c(Br)c(Br)c(Br)c2n1)c1ccc(Cl)cc1` (centres undefined): the viability at 50 µM worked out at 56% in the assay with CCRF-CEM [1], 19% in the assay with MCF7 [7], 0% with CCRF-CEM [9] and 9% in the assay on MCF7 [14]. The viability at 12.5 µM in the assay on CCRF-CEM [2] was found to be 93%; with MCF7 [3], 100%; in the assay with MCF7 [5], 90%; in the assay with CCRF-CEM [18], 105%. Further, the viability at 25 µM in the assay on MCF7 [4] worked out at 92%; in the assay with CCRF-CEM [15], 106%; in the assay on MCF7 [16] it was 96%; in the assay on CCRF-CEM [17], 69%. Also, the viability at 100 µM in the assay on MCF7 [6], with CCRF-CEM [8], in the assay on MCF7 [10] and with CCRF-CEM [12] was 0% each time. In addition, the Activity in assay [11] worked out at 95.6%; in [13], 45.4%.
